Source: PubChem BioAssay AID248 (DTP/NCI, 2004)
“And” between values parts separate entries of the source, which are not always exact repeats. Equal values may be shown once. Toxic doses and inconclusive results are not listed. Rule as the data show it: active = T/C of 150% or more; inactive = T/C below 125%.

Tested on: L1210 leukemia ip in BDF1 mice, survival T/C
Assay: NCI In Vivo Anticancer Drug Screen. Data for tumor model L1210 Leukemia (intraperitoneal) in B6D2F1 (BDF1) mice
Conditions: endpoint: mean survival time, higher = longer survival
How it was run: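 Read-out is survival time, reported as the treated-group measurement over the vehicle-control measurement.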

[1] = dose: 55.0 mg/kg/injection, schedule: Q01DX Z (ip), vehicle: methylcellulose (MC)
[2] = dose: 83.0 mg/kg/injection, schedule: Q01DX Z (ip), vehicle: methylcellulose (MC)
[3] = dose: 100.0 mg/kg/injection, schedule: Q04DX003 (ip), vehicle: saline
[4] = dose: 200.0 mg/kg/injection, schedule: Q04DX003 (ip), vehicle: saline
[5] = dose: 400.0 mg/kg/injection, schedule: Q04DX003 (ip), vehicle: saline
[6] = dose: 50.0 mg/kg/injection, schedule: Q01DX009 (ip), vehicle: saline
[7] = dose: 100.0 mg/kg/injection, schedule: Q01DX009 (ip), vehicle: saline
[8] = dose: 100.0 mg/kg/injection, schedule: Q01DX001 (ip), vehicle: carboxymethylcellulose (CMC)
[9] = dose: 200.0 mg/kg/injection, schedule: Q01DX001 (ip), vehicle: carboxymethylcellulose (CMC)
[10] = dose: 50.0 mg/kg/injection, schedule: Q01DX001 (ip), vehicle: saline
[11] = dose: 100.0 mg/kg/injection, schedule: Q01DX001 (ip), vehicle: saline
[12] = dose: 200.0 mg/kg/injection, schedule: Q01DX001 (ip), vehicle: saline
[13] = dose: 25.0 mg/kg/injection, schedule: Q04DX002 (ip), vehicle: saline with Tween-80
[14] = dose: 50.0 mg/kg/injection, schedule: Q04DX002 (ip), vehicle: saline with Tween-80
[15] = dose: 100.0 mg/kg/injection, schedule: Q04DX002 (ip), vehicle: saline with Tween-80
[16] = dose: 400.0 mg/kg/injection, schedule: Q01DX001 (ip), vehicle: saline
[17] = dose: 100.0 mg/kg/injection, schedule: Q04DX003 (ip), vehicle: Klucel (hydroxypropylcellulose) (HPC)
[18] = dose: 200.0 mg/kg/injection, schedule: Q04DX003 (ip), vehicle: Klucel (hydroxypropylcellulose) (HPC)
[19] = dose: 400.0 mg/kg/injection, schedule: Q04DX003 (ip), vehicle: Klucel (hydroxypropylcellulose) (HPC)
[20] = dose: 100.0 mg/kg/injection, schedule: Q01DX009 (ip), vehicle: Klucel (hydroxypropylcellulose) (HPC)
[21] = dose: 200.0 mg/kg/injection, schedule: Q01DX009 (ip), vehicle: Klucel (hydroxypropylcellulose) (HPC)
[22] = dose: 100.0 mg/kg/injection, schedule: Q04DX003 (ip), vehicle: saline with Tween-80
[23] = dose: 200.0 mg/kg/injection, schedule: Q04DX003 (ip), vehicle: saline with Tween-80
[24] = dose: 400.0 mg/kg/injection, schedule: Q04DX003 (ip), vehicle: saline with Tween-80
[25] = dose: 50.0 mg/kg/injection, schedule: Q01DX009 (ip), vehicle: saline with Tween-80

Measured: T/C

CC(C)NCC1CCCCO1 (stereo not given)
inactive: [1] 91 % of control | [2] 88 % of control | dose: 125.0 mg/kg/injection, schedule: Q01DX Z (ip), vehicle: methylcellulose (MC) 100 % of control

COC(=O)NC1CCC(NC(=O)OC)CC1 (stereo not given)
inactive: dose: 100.0 mg/kg/injection, schedule: Q01DX001 (ip), vehicle: Klucel (hydroxypropylcellulose) (HPC) 96 % of control | dose: 200.0 mg/kg/injection, schedule: Q01DX001 (ip), vehicle: Klucel (hydroxypropylcellulose) (HPC) 93 % of control | dose: 400.0 mg/kg/injection, schedule: Q01DX001 (ip), vehicle: Klucel (hydroxypropylcellulose) (HPC) 91 % of control

O=C(c1ccccc1)C1CCCCC1
inactive: dose: 100.0 mg/kg/injection, schedule: Q01DX001 (ip), vehicle: other 111 % of control | [3] 104 % of control | dose: 200.0 mg/kg/injection, schedule: Q01DX001 (ip), vehicle: other 100 % of control | [4] 96 % of control | dose: 400.0 mg/kg/injection, schedule: Q01DX001 (ip), vehicle: other 105 % of control | [5] 96 % of control

Cc1cc(=O)c2cc(N)ccc2[nH]1
inactive: dose: 100.0 mg/kg/injection, schedule: Q01DX009 (ip), vehicle: water 98 % of control | dose: 100.0 mg/kg/injection, schedule: Q04DX003 (ip), vehicle: water 107 % of control | dose: 200.0 mg/kg/injection, schedule: Q01DX009 (ip), vehicle: water 98 % of control | dose: 200.0 mg/kg/injection, schedule: Q04DX003 (ip), vehicle: water 113 % of control | dose: 400.0 mg/kg/injection, schedule: Q01DX009 (ip), vehicle: water 94 % of control | dose: 400.0 mg/kg/injection, schedule: Q04DX003 (ip), vehicle: water 116 % of control

COc1cccc(CC2=NCCc3cc(OC)c(OC)cc32)c1
inactive: dose: 25.0 mg/kg/injection, schedule: Q01DX009 (ip), vehicle: saline 103 % of control | [6] 101 % of control | [7] 97 % of control | [3] 98 % of control

NCCN1C(c2ccccc2)C1c1ccccc1 (stereo not given)
inactive: dose: 50.0 mg/kg/injection, schedule: Q04DX003 (ip), vehicle: saline 94 % of control | [3] 94 % of control and 105 % of control | [4] 103 % of control | [5] 100 % of control

O=C(O)c1ccc2c(c1)C(=O)c1cc([N+](=O)[O-])ccc1-2
inactive: [8] 102 % of control | [9] 102 % of control

O=C(O)c1ccc(NO)cc1
inactive: dose: 24.0 mg/kg/injection, schedule: Q01DX Z (ip), vehicle: methylcellulose (MC) 103 % of control | dose: 36.0 mg/kg/injection, schedule: Q01DX Z (ip), vehicle: methylcellulose (MC) 100 % of control | [1] 102 % of control | [2] 93 % of control

N=c1nc(N)c([N+](=O)[O-])c(N)n1O
inactive: [8] 100 % of control | [9] 97 % of control | dose: 400.0 mg/kg/injection, schedule: Q01DX001 (ip), vehicle: carboxymethylcellulose (CMC) 100 % of control

Cc1c2c(cc3c1OCN(C)C3)CN(C)CO2
inactive: [10] 104 % of control | [11] 101 % of control | [12] 107 % of control

COc1cc(NC(=O)Nc2cccc(Cl)c2)c(OC)cc1Cl
inactive: [13] 99 % of control | [14] 99 % of control | [15] 96 % of control

O=C1OC2c3ccccc3C3CC(=O)C2C13 (stereo not given)
inactive: [10] 98 % of control | [11] 104 % of control | [12] 98 % of control | [16] 96 % of control

Clc1ccc2c3c(cccc13)CC2
inactive: dose: 75.0 mg/kg/injection, schedule: Q01DX001 (ip), vehicle: carboxymethylcellulose (CMC) 97 % of control | dose: 150.0 mg/kg/injection, schedule: Q01DX001 (ip), vehicle: carboxymethylcellulose (CMC) 97 % of control | dose: 300.0 mg/kg/injection, schedule: Q01DX001 (ip), vehicle: carboxymethylcellulose (CMC) 97 % of control

CC(C(=O)c1ccccc1)C(O)(C(F)(F)Cl)C(F)(F)Cl (stereo not given)
inactive: [17] 91 % of control | [18] 91 % of control | [19] 91 % of control

O=C(NNC(=O)c1ccc(Cl)cc1)Nc1ccc(F)c(Cl)c1
inactive: [20] 97 % of control | [21] 104 % of control | dose: 400.0 mg/kg/injection, schedule: Q01DX009 (ip), vehicle: Klucel (hydroxypropylcellulose) (HPC) 100 % of control

CN(C)CCCn1c2ccccc2c2cnccc21
inactive: [6] 100 % of control | [7] 89 % of control | [3] 97 % of control

Cc1cc(C)c(NS(=O)(=O)c2ccc([N+](=O)[O-])cc2)c(C)c1
inactive: [22] 89 % of control | [23] 93 % of control | [24] 86 % of control

O=C/C=C/c1cccc([N+](=O)[O-])c1
inactive: [10] 102 % of control | [11] 107 % of control | [12] 111 % of control

CC1CC(C)CC(NC(=O)NCCCl)C1 (stereo not given)
inactive: dose: 20.0 mg/kg/injection, schedule: Q01DX009 (ip), vehicle: Klucel (hydroxypropylcellulose) (HPC) 106 % of control | dose: 40.0 mg/kg/injection, schedule: Q01DX009 (ip), vehicle: Klucel (hydroxypropylcellulose) (HPC) 95 % of control | dose: 80.0 mg/kg/injection, schedule: Q01DX009 (ip), vehicle: Klucel (hydroxypropylcellulose) (HPC) 93 % of control | [17] 103 % of control | [21] 87 % of control | [18] 94 % of control | [19] 92 % of control

CCCCCCCC(=O)Nc1cc(C(F)(F)F)ccc1Cl
inactive: [22] 92 % of control | [23] 98 % of control | [24] 87 % of control

CSc1cccc(NC(=O)Nc2ccc(Cl)cc2)c1
inactive: [15] 104 % of control | dose: 200.0 mg/kg/injection, schedule: Q04DX002 (ip), vehicle: saline with Tween-80 93 % of control | dose: 400.0 mg/kg/injection, schedule: Q04DX002 (ip), vehicle: saline with Tween-80 89 % of control

N#CC(OC(OC(C#N)c1ccccc1)c1ccccc1)c1ccccc1 (stereo not given)
inactive: [25] 93 % of control | dose: 100.0 mg/kg/injection, schedule: Q01DX009 (ip), vehicle: saline with Tween-80 93 % of control | dose: 200.0 mg/kg/injection, schedule: Q01DX009 (ip), vehicle: saline with Tween-80 90 % of control

COc1ccc(/C=C/c2ccc3ccccc3[n+]2C)cc1
inactive: dose: 12.5 mg/kg/injection, schedule: Q01DX009 (ip), vehicle: saline with Tween-80 94 % of control | dose: 25.0 mg/kg/injection, schedule: Q01DX009 (ip), vehicle: saline with Tween-80 115 % of control | dose: 25.0 mg/kg/injection, schedule: Q04DX003 (ip), vehicle: Klucel (hydroxypropylcellulose) (HPC) 101 % of control | [25] 115 % of control | dose: 50.0 mg/kg/injection, schedule: Q04DX003 (ip), vehicle: Klucel (hydroxypropylcellulose) (HPC) 106 % of control

O=c1[nH][nH]c2c1cnc1ccccc12
inactive: dose: 50.0 mg/kg/injection, schedule: Q01DX009 (ip), vehicle: Klucel (hydroxypropylcellulose) (HPC) 97 % of control | [20] 101 % of control | [21] 94 % of control

CCOP(=O)(OCC)SC=C(Cl)Cl
inactive: [13] 94 % of control | [14] 91 % of control | [15] 94 % of control and 95 % of control

CCCCCCCCCCCCCCCc1ccc([N+](=O)[O-])c(O)c1
inactive: dose: 100.0 mg/kg/injection, schedule: Q04DX003 (ip), vehicle: other 98 % of control | dose: 200.0 mg/kg/injection, schedule: Q04DX003 (ip), vehicle: other 101 % of control | dose: 400.0 mg/kg/injection, schedule: Q04DX003 (ip), vehicle: other 101 % of control

N=C(N)SCCCCCSC(=N)N
inactive: [11] 124 % of control | dose: 100.0 mg/kg/injection, schedule: Q04DX002 (ip), vehicle: saline 110 % of control | [12] 109 % of control | dose: 200.0 mg/kg/injection, schedule: Q04DX002 (ip), vehicle: saline 91 % of control

O=c1cc(O)c2c(O)cc(O)cc2o1
inactive: [11] 96 % of control | [12] 96 % of control | [16] 88 % of control
